Values quoted from earlier work as cited in PMC11211886 (Frontiers in Pharmacology, 2024).
Read-outs that look alike come from different tables or passages of the source.

Tests used:
[1] = cited from earlier work; for incidence of ≥Grade 3 GI toxicity, including diarrhea and colitis: clinical trials, ref FDA, 2014, FDA, 2017, 2018, 2021
[2] = ref FDA, cited from earlier work
[3] = test system: P-gp; parameters: method as in FDA, 2014; FDA, 2017; FDA, 2018; FDA, 2021; details: ref FDA, 2014, 2017, 2018, 2021; cited from earlier work

Structure (SMILES)	incidence of ≥Grade 3 GI toxicity, including diarrhea and colitis [1]	diarrhea (TEAE) incidence ([1]; patients with indolent and aggressive lymphoma, phase II, ref Dreyling et al., 2017) [%]	exposure in the intestines versus plasma [2]; 2018 [fold]	P-gp substrate status [3]	diarrhea, any-grade adverse event ([1]; ref Wang et al., 2023) [%]	diarrhea, grade ≥3 AE ([1]; ref Wang et al., 2023) [%]	exposure in the intestines versus plasma [2]; 2017 [fold]	exposure in the intestines versus plasma [2]; 2014 [fold]
COc1c(OCCCN2CCOCC2)ccc2c1N=C(NC(=O)c1cnc(N)nc1)N1CCN=C21 [copanlisib, Copanlisib]	higher than 10%	40.5	190	P-gp substrates				
C[C@H](Nc1ncnc2[nH]cnc12)c1cc2cccc(Cl)c2c(=O)n1-c1ccccc1 [duvelisib, Duvelisib]	higher than 10%			P-gp substrates	47	12	100	
CC[C@H](Nc1ncnc2[nH]cnc12)c1nc2cccc(F)c2c(=O)n1-c1ccccc1 [idelalisib, Idelalisib]	higher than 10%			P-gp substrates				50
